For one assay, the target named is T1, FGFR-1 (Homo sapiens, UniProt P11362).
T1 construct: GST; made in house
Kind of assay: FGFR-1 TR-FRET biochemical assay. To be noted: 0.6 uM ATP, 5 nM FGFR1-GST; bounds given in nM. In short, it runs like this: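 In this LANCE time-resolved FRET format, compounds at final 10 μM–0.128 nM (1% DMSO, 1:5 series) were preincubated before enzyme start. Reactions ran for one hour at room temperature with 0.6 uM ATP, 25 nM biotinylated poly GT and 5 nM GST-tagged FGFR1. Inhibition was calculated from the 665/615 nm ratio minus the ATP-free background.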

Another assay concerns H460. Kind of assay: Tumor cell proliferation (H460 proliferation assay). Type of assay: cell-based. To be noted: Homo sapiens, NCI-H460, 72 h, Alamar Blue. The procedure:
(§1) Human tumor cells (e.g., HCT116 or MDA-MB-231 cells), were seeded in a Costar 96-well plate at 3.0×10^3 cells/well and grown in 150 μl of RPMI complete media (Invitrogen Corporation, Grand Island, N.Y.) containing 10% fetal bovine serum (Hyclone, Logan, Utah) at 37° C. for 16 h in an incubator with 5% CO2. To each well, 50 μl of additional growth media containing 40 μM to 18 nM concentrations of compound with 0.4% DMSO was added. Cells were grown for another 72 h at 37° C. with 5% CO2. 20 μl of Alamar Blue (Trek Diagnostic Systems, Inc., Cleveland, Ohio) reagent was added to each well and incubated for 3 h at 37° C. Plates were read in a SpectraMax Gemini (Molecular Devices, CA) with 544 nm excitation and 590 nm emission wavelength. IC50 values were determined by linear regression analysis of log drug concentration versus percent inhibition.
(In general: The colour change of resazurin is a common sign of viable cells or microbes.)

Another assay concerns HCT116 cells. Kind of assay: Tumor cell proliferation (HCT116 proliferation assay). Type of assay: cell-based. To be noted: Homo sapiens, HCT-116, 72 h, Alamar Blue. The procedure:
as §1

A further assay concerns MDA-MB-231 cells. As to the kind of experiment: Tumor cell proliferation (MDA-MB-231 proliferation assay). Type of assay: cell-based. The following applies: Homo sapiens, MDA-MB-231, 72 h, Alamar Blue. The procedure:
as §1

The subject of assay [1] is histone 3 phosphorylation in colon carcinoma (HCT116). As to the kind of experiment: p-Histone3 assay. To be noted: Homo sapiens, HCT-116, 24 h, HCT116, 24 h treatment. The class given is cell-based. The procedure: Compounds were assayed for the inhibition of histone 3 phosphorylation in colon carcinoma (HCT116). Briefly, 20,000 cells/well were seeded in a 96-well black-walled, poly-d-lysine plates in RPMI+10% FBS and incubated at 37° C. in 5% CO2 overnight. The following day, the cells were treated with compounds for 24 hours at 37° C. Following compound treatment; plates were centrifuged at 1000 rpm for 2 minutes and washed twice with 100 μl of cold sterile TBS. Cells were then fixed with cold 3.7% formaldehyde in TBS (4° C. for 1 hour) and then permeabolized with 0.1% Triton-X-100 in TBS (room temperature for 30 minutes). Plates were then washed with of 0.25% BSA-TBS and blocked with BSA solution for 1 hour at room temperature while shaking. The supernatant was removed and replaced with diluted primary antibody (anti-phospho-histone 3, serine 10, Cell Signaling) at 1:250 in 0.25% BSA-TBS and incubated overnight at 4° C. The plates were washed and treated with diluted secondary antibody (anti-rabbit Eu-labeled) at 1:10000 in 0.25% BSA-TBS (room temperature for 1 hour). The antibody solution was removed from each well and washed eight times. The wash buffer was replaced with 50 μl pre-warmed enhancement solution and mixed on the orbital shaker for 10 minutes. Fluorescence was detected with a Victor V Fluorescence Detector. The data are expressed as percent inhibition: % inhibition=100−((Signal with inhibitor−background)/(Signal without inhibitor−background))−100.

[2] abbreviates: lower bound of the bin 'greater than 500 nM but less than 4 μM'.
Setting [3] is: upper bound of the bin 'greater than 500 nM but less than 4 μM'.
Setting [4] is: lower bound of the bin 'greater than 500 nM but less than 3 μM'.
The mark [5] stands for this setting: upper bound of the bin 'greater than 500 nM but less than 3 μM'.
The mark [6] stands for this setting: lower bound of the bin 'greater than 500 nM but less than 5 μM'.

SMILES strings stand for the structures.

Broadly, the IC50 is the concentration that gives 50% inhibition. A higher IC50 goes with weaker potency.

T1 sequence (P11362 22-822): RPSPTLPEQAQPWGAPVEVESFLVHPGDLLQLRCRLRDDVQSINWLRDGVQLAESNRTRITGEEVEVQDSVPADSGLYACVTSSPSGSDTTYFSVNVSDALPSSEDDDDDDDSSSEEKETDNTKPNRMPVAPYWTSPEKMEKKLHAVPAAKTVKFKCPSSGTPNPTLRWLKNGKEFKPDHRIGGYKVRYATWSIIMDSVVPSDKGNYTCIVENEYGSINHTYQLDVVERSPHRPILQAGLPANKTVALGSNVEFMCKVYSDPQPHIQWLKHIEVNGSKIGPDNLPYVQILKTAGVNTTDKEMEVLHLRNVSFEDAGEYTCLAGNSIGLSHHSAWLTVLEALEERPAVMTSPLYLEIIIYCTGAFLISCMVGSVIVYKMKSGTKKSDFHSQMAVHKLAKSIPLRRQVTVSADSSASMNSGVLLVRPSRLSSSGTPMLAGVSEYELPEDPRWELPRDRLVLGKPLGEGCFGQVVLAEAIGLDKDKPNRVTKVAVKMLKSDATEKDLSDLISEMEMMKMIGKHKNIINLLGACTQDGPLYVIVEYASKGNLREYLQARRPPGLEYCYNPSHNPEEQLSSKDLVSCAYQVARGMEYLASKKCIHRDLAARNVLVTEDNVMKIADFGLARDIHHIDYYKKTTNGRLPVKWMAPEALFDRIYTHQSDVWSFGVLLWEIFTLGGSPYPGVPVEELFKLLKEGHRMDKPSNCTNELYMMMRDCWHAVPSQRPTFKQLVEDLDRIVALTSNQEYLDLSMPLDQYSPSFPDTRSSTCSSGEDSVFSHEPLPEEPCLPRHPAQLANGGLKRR

For the compound `Nc1ncnn2c(CN3CCOCC3)cc(-c3ccc(NC(=O)Nc4ccc(F)c(C(F)(F)F)c4)cc3)c12` [Example 6, N-{4-[4-amino-7-(morpholin-4-ylmethyl)-pyrrolo[2,1-f][1,2,4]triazin-5-yl]phenyl}-N′-[4-fluoro-3-(trifluoromethyl)phenyl]urea], the half-maximal inhibitory concentration (IC50) was below 10 nM against FGFR-1; above 500 nM with H460 (setting [2]); below 4000 nM in the assay on H460 (setting [3]); above 500 nM in the assay on HCT116 cells (setting [2]); below 4000 nM in the assay on HCT116 cells (setting [3]); above 500 nM in the assay on MDA-MB-231 cells (setting [4]). The same compound had a half-maximal inhibitory concentration (IC50) with MDA-MB-231 cells (setting [5]) below 3000 nM.

With `Nc1ncnn2c(CN3CCOCC3)cc(-c3ccc(NC(=O)Nc4cccc(C(F)(F)F)c4)cc3)c12` [Example 5, N-{4-[4-amino-7-(morpholin-4-ylmethyl)-pyrrolo[2,1-f][1,2,4]triazin-5-yl]phenyl}-N′-[3-(trifluoromethyl)phenyl]urea], the IC50 is above 500 nM with H460 (setting [2]); below 4000 nM in the assay with H460 (setting [3]); above 500 nM in the assay with HCT116 cells (setting [2]); below 4000 nM in the assay with HCT116 cells (setting [3]); above 500 nM in the assay with MDA-MB-231 cells (setting [4]); below 3000 nM in the assay on MDA-MB-231 cells (setting [5]).

As to `Nc1ncnn2c(CN3CCOCC3)cc(-c3ccc(NC(=O)Nc4cc(C(F)(F)F)ccc4F)c(F)c3)c12` [Example 1], the half-maximal inhibitory concentration (IC50) against FGFR-1 is below 10 nM; in the assay on H460 (setting [2]), above 500 nM; with H460 (setting [3]) it was below 4000 nM.

On to `Nc1ncnn2c(CN3CCOCC3)cc(-c3ccc(NC(=O)Nc4cc(C(F)(F)F)ccc4F)cc3)c12` [Example 4, N-{4-[4-amino-7-(morpholin-4-ylmethyl)-pyrrolo[2,1-f][1,2,4]triazin-5-yl]phenyl}-N′-[2-fluoro-5-(trifluoromethyl)phenyl]urea], for which the IC50 is below 10 nM on FGFR-1; above 500 nM in the assay with HCT116 cells (setting [2]); below 4000 nM in the assay on HCT116 cells (setting [3]); above 500 nM in the assay with MDA-MB-231 cells (setting [4]); below 3000 nM in the assay with MDA-MB-231 cells (setting [5]); below 5 µM in assay [1] (bounds given in μM). Further, the IC50 in assay [1] (setting [6]) is above 0.5 µM.

As for `Nc1ncnn2c(CN3CCOCC3)cc(-c3ccc(NC(=O)Nc4cc(C(F)(F)F)ccc4F)cc3F)c12` [Example 16, N-{4-[4-amino-7-(morpholin-4-ylmethyl)pyrrolo[2,1-f][1,2,4]triazin-5-yl]-3-fluorophenyl}-N′-[2-fluoro-5-(trifluoromethyl)phenyl]urea], the concentration for half-maximal inhibition (IC50) against FGFR-1 was below 10 nM; in assay [1] (bounds given in μM) it was below 5 µM; in assay [1] (setting [6]) it was above 0.5 µM.

For the compound `Nc1ncnn2c(CN3CCOCC3)cc(-c3ccc(NC(=O)Nc4cc(C(F)(F)F)ccn4)cc3)c12` [Example 3, N-{4-[4-amino-7-(morpholin-4-ylmethyl)pyrrolo[2,1-f][1,2,4]triazin-5-yl]phenyl}-N′-[4-(trifluoromethyl)pyridin-2-yl]urea], the IC50 at FGFR-1 is below 10 nM; with H460 (setting [2]), above 500 nM; in the assay with H460 (setting [3]) it was below 4000 nM; with HCT116 cells (setting [2]), above 500 nM; in the assay on HCT116 cells (setting [3]), below 4000 nM; in the assay on MDA-MB-231 cells (setting [4]), above 500 nM. Further, the half-maximal inhibitory concentration (IC50) with MDA-MB-231 cells (setting [5]) was below 3000 nM.

As for `CS(=O)(=O)N1CCN(Cc2cc(-c3ccc(NC(=O)Nc4cc(C(F)(F)F)ccc4F)cc3)c3c(N)ncnn23)CC1` [Example 83, N-[4-(4-amino-7{[4(methylsulfonyl)-piperazin-1-yl]methyl}pyrrolo[2,1-f][1,2,4]triazin-5-yl)phenyl]-N′-[2-fluoro-5-(trifluoromethyl)phenyl]urea], the results for the IC50 (against FGFR-1; in assay [1] (bounds given in μM); in assay [1] (setting [6])) were 10 to 100 nM, below 5 µM and above 0.5 µM, respectively.

In the case of `Nc1ncnn2c(CN3CCOCC3)cc(-c3ccc(NC(=O)Nc4cc(C(F)(F)F)ccn4)c(F)c3)c12` [Example 8, N-{4-[4-amino-7-(morpholin-4-ylmethyl)pyrrolo[2,1-f][1,2,4]triazin-5-yl]-2-fluorophenyl}-N′-[4-(trifluoromethyl)pyridin-2-yl]urea], the concentration for half-maximal inhibition (IC50) was below 10 nM against FGFR-1, above 500 nM with H460 (setting [2]) and below 4000 nM in the assay with H460 (setting [3]).

The record behind these values is patent US8143393B2, “Substituted 4-amino-pyrrolotriazine derivatives useful for treating hyper-proliferative disorders and diseases associated with angiogenesis” (Bayer HealthCare LLC, priority 2005, dated 2012).
